Test results from patent publication US4139621A, “N-(4-substituted-3,5-dichloro-phenyl)-piperazines” (Beecham Group Limited, priority 1976, dated 1979).

Experiments:
[1] = Anti-Catapresan test (anti-catapresan induced fighting test); type: in vivo; conditions: po; mouse
Protocol: (§1) 1-(3,4,5-Trichlorophenyl)piperazine hydrochloride [compound A] was tested in various conventional screens used for determining the effect of major tranquillizors. In these tests chlopromazine was used as a positive control. The results obtained were as follows:
(§2) The activity of Compound A in the anti-catapresan induced fighting test and the inhibition of conditioned avoidance responses in the shuttlebox tests indicate that Compound A has potential neuroleptic/anxiolytic activity in man.

[2] = Shuttlebox (conditioned avoidance behaviour in the rat), % inhibition of crossing rate; type: in vivo
Protocol: as §1, §2

[3] = Induction of catalepsy in the rat; type: in vivo
Protocol: as §1
catalepsy in 0% at 54% at
the rat. 40 mg/kg s.c. 10 mg/kg i.p.
as §2

[4] = Activity in man extrapolated from potency relative to chlorpromazine in animal tests; conditions: orally, inferred from potency relative to chlorpromazine in animal tests
Text: as §2

SMILES	ED50 [1] [mg/kg]	% inhibition of crossing rate, Shuttlebox ([2]; 10 mg/kg p.o.) [%]	Induction of catalepsy ([3]; 10 mg/kg i.p.) [%]	% inhibition of crossing rate, Shuttlebox ([2]; 5 mg/kg p.o.) [%]	cataleptic activity [3]	Induction of catalepsy ([3]; 40 mg/kg s.c.) [%]	daily doses at which active in man [4] [mg/kg]
CN(C)CCCN1c2ccccc2Sc2ccc(Cl)cc21 [Chlorpromazine, chlorpromazine, reference compound]	2.8	-67	54	–	–	–	–
Cl.Clc1cc(N2CCNCC2)cc(Cl)c1Cl [Compound A, 1-(3,4,5-Trichlorophenyl)piperazine hydrochloride]	6	–	–	-73	lack of cataleptic activity	0	0.2 to 10
